Measurements published in ChEMBL document CHEMBL1201862, “PubChem BioAssay data set” (2004).
Calls of active or inactive are those of the source.

Assays:
CAAX prenyl protease 1 = CAAX prenyl protease 1 (Saccharomyces cerevisiae S288c, UniProt P47154); assay: yeast CAAX protease Ste24 inhibition – biochemical, S. cerevisiae, plate reader, cherry-pick, dose response (AID 488815)
[1] = molecular target: T1, Ubiquitin-conjugating enzyme E2 N (Homo sapiens, UniProt P61088); assay type: functional;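 further: Dose-response confirmation in a TR-FRET assay detecting UBC13-driven polyubiquitin chain formation, inhibition measured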
T1 sequence (P61088 whole entry): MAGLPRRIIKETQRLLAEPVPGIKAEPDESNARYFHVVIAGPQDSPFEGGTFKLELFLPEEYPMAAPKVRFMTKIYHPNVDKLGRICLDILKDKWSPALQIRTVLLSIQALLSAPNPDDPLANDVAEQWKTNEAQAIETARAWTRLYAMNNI

[2] = Trypanosoma cruzi growth suppression in host cells – NIH3T3 host cells, beta-gal luminescence, confirmation (AID 2044); assay type: functional, cell-based;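 further: intracellular parasites grown in NIH/3T3 mouse fibroblasts as host cells; luminescent beta-galactosidase reporter signal from transgenic T. cruzi replicating inside host cells; inhibitors lower the luminescence signal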
[3] = luciferase reporter signal suppression in cells – H4 neuroglioma cells, luminescence, dose response (AID 1990); assay type: functional, cell-based
Nonstructural protein 1 = Nonstructural protein 1 (Influenza A virus, UniProt Q194T2); assay type: functional, Influenza A virus (A/California/07/2009(H1N1))
[4] = Luminescence Cell-Based Dose Response HTS to Identify Inhibitors of 5'UTR Stem-Loop Driven Prion Protein mRNA Translation in H4 Neuroglioblastoma Cells. [Related pubchem assays: 1827 (Project Summary), 1813 (Primary HTS)]; assay type: functional
[5] = test system: Streptococcus sp. 'group A'; assay: Streptococcus pyogenes SK(-)GAS viability under kanamycin – luminescence, BacTiterGlo, confirmation, counter-screen for streptokinase expression inhibitor project, dose response (AID 1900); assay type: functional, organism-based
[6] = molecular target: Serine/threonine-protein phosphatase (Homo sapiens, UniProt Q9BPW0); assay: inhibition of protein phosphatase 5 activity – biochemical, fluorescence, dose response (AID 2395)
[7] = molecular target: Heat shock protein HSP 90-alpha (Homo sapiens, UniProt P07900); assay: Luminescence-based dose response biochemical high throughput screening assay for inhibitors of the Heat Shock Protein 90 (HSP90). [Related pubchem assays: 1831 (Summary AID.), 1846 (Confirmation screen.), 1789 (Primary screen.)]
[8] = molecular target: T2, DNA repair protein RAD52 homolog (Homo sapiens, UniProt P43351); assay type: functional, biochemical
T2 sequence (P43351 whole entry): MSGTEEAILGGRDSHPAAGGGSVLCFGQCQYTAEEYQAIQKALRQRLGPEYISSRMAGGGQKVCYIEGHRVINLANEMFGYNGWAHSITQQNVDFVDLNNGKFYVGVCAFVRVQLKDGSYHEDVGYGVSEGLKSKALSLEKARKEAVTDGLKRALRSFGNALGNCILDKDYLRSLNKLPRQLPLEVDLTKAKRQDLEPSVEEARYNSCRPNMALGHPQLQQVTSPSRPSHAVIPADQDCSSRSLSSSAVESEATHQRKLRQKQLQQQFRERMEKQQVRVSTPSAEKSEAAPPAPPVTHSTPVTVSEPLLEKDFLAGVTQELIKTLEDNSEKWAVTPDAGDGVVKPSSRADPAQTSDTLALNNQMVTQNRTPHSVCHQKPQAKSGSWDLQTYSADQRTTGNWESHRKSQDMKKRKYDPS

Sequence of Serine/threonine-protein phosphatase (Q9BPW0 whole entry): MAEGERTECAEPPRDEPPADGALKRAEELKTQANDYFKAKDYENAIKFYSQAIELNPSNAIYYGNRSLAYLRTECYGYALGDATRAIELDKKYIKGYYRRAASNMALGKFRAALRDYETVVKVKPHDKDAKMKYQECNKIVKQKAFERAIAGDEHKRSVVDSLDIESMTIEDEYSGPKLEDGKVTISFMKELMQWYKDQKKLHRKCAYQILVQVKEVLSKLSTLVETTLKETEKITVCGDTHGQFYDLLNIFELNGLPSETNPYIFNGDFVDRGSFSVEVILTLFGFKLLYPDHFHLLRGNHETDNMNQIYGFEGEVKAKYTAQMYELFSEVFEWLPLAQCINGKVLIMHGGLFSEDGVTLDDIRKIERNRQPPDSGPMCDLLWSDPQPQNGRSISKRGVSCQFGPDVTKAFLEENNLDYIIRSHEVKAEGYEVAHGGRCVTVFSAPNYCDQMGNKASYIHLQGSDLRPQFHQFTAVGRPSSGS
Sequence of Nonstructural protein 1 (Q194T2 whole entry): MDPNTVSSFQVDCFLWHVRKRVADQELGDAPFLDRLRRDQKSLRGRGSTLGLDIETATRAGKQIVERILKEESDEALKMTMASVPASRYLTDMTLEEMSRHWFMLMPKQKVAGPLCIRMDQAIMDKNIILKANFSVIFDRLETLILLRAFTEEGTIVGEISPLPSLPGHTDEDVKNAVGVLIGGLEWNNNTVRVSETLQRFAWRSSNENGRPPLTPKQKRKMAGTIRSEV
Sequence of CAAX prenyl protease 1 (P47154 whole entry): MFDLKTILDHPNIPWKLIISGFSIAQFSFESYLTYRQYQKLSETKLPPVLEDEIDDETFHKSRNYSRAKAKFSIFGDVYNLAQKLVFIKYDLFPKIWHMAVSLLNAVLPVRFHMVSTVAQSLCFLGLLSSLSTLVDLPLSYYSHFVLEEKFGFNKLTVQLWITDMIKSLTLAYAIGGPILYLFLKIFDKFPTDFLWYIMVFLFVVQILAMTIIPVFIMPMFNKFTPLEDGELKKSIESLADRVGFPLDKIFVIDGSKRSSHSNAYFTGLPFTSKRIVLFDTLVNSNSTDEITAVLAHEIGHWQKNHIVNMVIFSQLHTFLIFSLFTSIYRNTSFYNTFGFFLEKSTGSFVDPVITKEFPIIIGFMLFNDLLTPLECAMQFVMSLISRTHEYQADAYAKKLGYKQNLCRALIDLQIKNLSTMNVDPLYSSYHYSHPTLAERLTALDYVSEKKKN

For `CCCCCCCCCCOC(=O)Cn1c(COc2cccc(OC)c2)[n+](C)c2ccccc21`, the AC50 (CAAX prenyl protease 1) was 2110 nM (active), the IC50 [1] was > 20000 nM (inactive) and the EC50 [2] was 765 nM (active).

In the case of `COc1cc(OC)c(NC2=CC(=O)C(=O)c3ccccc32)cc1Cl`, the EC50 [3] is reported as 412 nM (active), the IC50 (Nonstructural protein 1) is reported as > 100000 nM (active) and the EC50 [4] is reported as 3700 nM (active).

In the case of `CCc1ccc(S(=O)(=O)/N=C2\C=C(Nc3cccc(C(=O)O)c3)C(=O)c3ccccc32)cc1`, the EC50 [5] is reported as 1260 nM (active), the IC50 [6] is reported as 6850 nM (active) and the IC50 [7] is reported as 926 nM (active).

In the case of `COc1cc2c(cc1OC)-c1c(OC)c(OC)cc3c1C(C2)N(C)CC3` (stereo not given), the AC50 [8] is reported as 2140 nM (active).
